Results from PubChem BioAssay (NCI).
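How tested: cells in 96-well plates exposed to compound for 48 hours at five concentrations. GI50: concentration for 50% inhibition of growth. TGI marks complete inhibition of growth.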 Where a SMILES comes first, the peptide text is derived from it. [ ]: non-standard residue; d: D form.

What was measured:
Assay in all cases: inhibition of tumour cell growth, NCI panel, 48 h
[1] = system: HCC-2998 colon
[2] = system: COLO 205 colon
[3] = system: SR leukemia
[4] = system: UACC-257 melanoma
[5] = system: MDA-MB-231 breast
[6] = system: SNB-75 CNS
[7] = system: UACC-62 melanoma
[8] = system: TK-10 renal
[9] = system: MOLT-4 leukemia
[10] = system: IGROV1 ovarian
[11] = system: OVCAR-5 ovarian

SMILES | TGI [1] [µM] | TGI [2] [µM] | TGI [3] [µM] | TGI [4] [µM] | TGI [5] [µM] | TGI [6] [µM] | TGI [7] [µM] | TGI [8] [µM] | TGI [9] [µM] | TGI [10] [µM] | TGI [11] [µM] | GI50 [7] [µM]
OCc1ccc2c(c1)CC1(Cc3ccccc3C1)C2 | > 100 | 31.2 | > 100 | 43 | 27.4 | 30.2 | 60.2 | 61.5 | – | – | – | –
CCOP(=O)(OCC)C(Nc1ccc(Cl)cc1)c1ccc(F)cc1 (stereo unspecified) | 59.1 | 87.1 | > 100 | 44 | 74.6 | 84.8 | 29.3 | > 100 | 61.7 | – | – | –
CCSC12OC3(CCCCCN3C1=O)C1C(=O)N(c3ccccc3)C(=O)C12 (stereo unspecified) | – | > 100 | > 100 | > 100 | > 100 | > 100 | > 100 | > 100 | > 100 | > 100 | > 100 | –
Cc1cc(C)[n+]2c(c1)C=CC2 | > 100 | 68.2 | – | > 100 | – | 41.9 | – | > 100 | – | – | > 100 | –
O=S(=O)(O)c1ccc(O)c(N=Nc2c(O)ccc3ccccc23)c1 | – | > 100 | – | > 100 | > 100 | > 100 | > 100 | > 100 | > 100 | > 100 | > 100 | –
O=S(=O)(O)c1cc(S(=O)(=O)O)c2cc(N=Nc3ccc(N=Nc4ccc(/C=C/c5ccc(N=[N+]([O-])c6ccc(/C=C/c7ccc(N=Nc8ccc(N=Nc9ccc%10cc(S(=O)(=O)O)cc(S(=O)(=O)O)c%10c9)cc8)cc7S(=O)(=O)O)c(S(=O)(=O)O)c6)cc5S(=O)(=O)O)c(S(=O)(=O)O)c4)cc3)ccc2c1 | > 100 | > 100 | – | > 100 | – | > 100 | 65.4 | – | > 100 | > 100 | > 100 | –
O=c1oc2ccccc2c(O)c1C(c1ccc(OCc2ccccc2)cc1)c1c(O)c2ccccc2oc1=O | 96.9 | > 100 | – | > 100 | 69.2 | 65.6 | > 100 | > 100 | > 100 | > 100 | > 100 | –
N#CC1=C(O)NC(O)=C(C#N)C1c1c(Cl)cccc1Cl | 60 | > 100 | > 100 | > 100 | – | 48.4 | > 100 | > 100 | > 100 | > 100 | 98.5 | –
CC(C)C[C@H](NC(=O)[C@H](CC(C)C)NC(=O)[C@@H](Cc1c[nH]c2ccccc12)NC(=O)[C@H](Cc1ccccc1)NC(=O)[C@@H](Cc1c[nH]c2ccccc12)NC(=O)[C@H](CCC(N)=O)NC(=O)[C@@H](CCC(N)=O)NC(=O)[C@@H]1CCCN1C(=O)[C@@H](CCCCN)NC(=O)[C@H]1CCCN1C(=O)[C@H](N)CCCN=C(N)N)C(N)=O (H-[dR][dP][dK]P[dQ]Q[dW]F[dW]LL-NH2) | > 100 | > 100 | – | > 100 | – | > 100 | > 100 | – | > 79.5 | > 100 | > 100 | –
CC(C)OC1=C(CC2(C)OCCO2)C(=O)C12OCCO2 | – | > 100 | – | > 100 | > 100 | > 100 | > 100 | > 100 | > 100 | > 100 | > 100 | –
O=c1c2cccnc2oc2c(Cl)cc(-c3nn[nH]n3)cc12 | > 100 | > 100 | > 100 | – | > 100 | > 100 | > 100 | > 100 | – | > 100 | > 100 | –
N#CCCN(CCCCN(CCC#N)C(=O)Nc1ccccc1)C(=O)Nc1ccccc1 | > 100 | > 100 | > 100 | – | > 100 | > 100 | > 100 | – | > 100 | > 100 | > 100 | –
CC(=O)NC1C(OCc2ccccc2)OC(CO)C(O)C1OC(C)C(=O)NC(C(=O)NC(CCC(=O)NCCCNc1ccc([N+](=O)[O-])c2[nH]c3ccccc3c(=O)c12)C(N)=O)C(C)C (stereo unspecified) | – | > 100 | – | > 100 | > 100 | > 100 | > 100 | > 100 | > 100 | > 100 | > 100 | –
COc1cc2c3c(n(C)c(=O)c2cc1OC)-c1cc2c(cc1/C3=C\CCCCl)OCO2 | 73.2 | > 100 | – | > 100 | > 100 | 32.2 | > 100 | 37.3 | 43.2 | > 100 | > 100 | 33.3
OC(CCN1CCN(CCOC(c2ccccc2)c2ccccc2)CC1)c1ccccc1 (stereo unspecified) | 28.9 | 29.1 | – | 34.8 | 33.6 | > 100 | 30.2 | 59.8 | – | 59.3 | > 100 | –
COC(=O)N[C@@H]1C[C@H]2CC[C@]1(O[Si](C(C)C)(C(C)C)C(C)C)C(=O)C2 | – | > 100 | > 100 | 38.4 | 76.5 | 41.9 | 44.7 | 30.6 | > 100 | 32 | 45.3 | –
CCOC(=O)c1sc2nc(SC)nc3c2c1NCN3C | > 100 | > 100 | – | > 100 | 92.5 | 22.9 | > 100 | > 100 | – | 39.2 | > 100 | –
CN(C)C(=O)N1N[C@H](c2ccccc2)[C@@H]1c1ccccc1 | > 100 | > 100 | – | > 100 | > 100 | > 100 | > 100 | > 100 | > 100 | > 100 | – | –
Clc1ccc(C2SCc3nc4ccccc4n32)cc1 (stereo unspecified) | – | 36.8 | – | – | – | 24.9 | 43.6 | > 100 | 56.1 | 55.9 | – | –
CCN(CC)/N=C\c1c2ccccc2cc2ccccc12 | – | 53.5 | > 100 | 72.4 | > 100 | 68.7 | > 100 | > 100 | > 100 | > 100 | > 100 | –
[N-]=[N+]=Nc1cc(=O)[nH]c2ccccc12 | – | > 100 | > 100 | > 100 | > 100 | > 100 | > 100 | > 100 | > 100 | > 100 | > 100 | –
O=C(CSc1nc2ccc(I)cc2c(=O)n1Cc1ccccc1)Nc1ccccc1 | – | > 100 | 33.3 | – | > 100 | 12.2 | > 100 | – | > 100 | > 100 | > 100 | –
